# From patent US8492515B2 (priority 2008, dated 2013)
# Square brackets hold non-standard residues; d marks the D form. Peptide text beside a SMILES is read from it. Ac6c = NC1(C(=O)O)CCCCC1
# Experiments:
# [1] = tested on: K. pneumoniae 012-3132
# Excerpt: (§1) To investigate the activity of the A3-APO metabolites, Chex1-Arg20 single chain unit and an Arg7-Arg20 common cleavage fragment were synthesized and studied for their ability to kill Enterobacteriaceae strains in undiluted Muller-Hinton broth, a true measure of potential clinical viability (Otvos et al., 2005. J. Med. Chem. 48: 5349-5359). The peptides of the invention were made on a CEM Liberty automated synthesizer with standard Fmoc-chemistry. The peptides were detached from the resin with the carboxyl terminus of the C-terminal Arg residue being in the form of an amino amide, —C(O)—NH2 (“Chex1-Arg20-NH2” and “Arg7-Arg20-NH2”), while still in the microwave chamber, and were purified by RP-HPLC. […] The biological studies carried out on chemically synthesized peptides in this example and succeeding examples were carried out on the C-terminal modified versions of the peptides wherein the C-terminal carboxylic acid function was in the form of an amide, —C(O)—NH2. Antibacterial growth inhibition assays were performed using sterile 96-well polypropylene plates (Nunc F96 microtiter plates) in a final volume of 100 μL as described previously (Cudic et al., 2002. Peptides 23: 271-283). The cell concentrations were estimated by measuring the ultraviolet absorbance at 600 nm and applying the formula cfu/mL=A600(3.8×10^8), where cfu is the number of colony-forming units. Briefly, 50 μL of a suspension of midlogarithmic phase bacterial cultures diluted to 5×10^5 cfu/mL in Muller-Hinton broth (MHB) was added to 50 μL of serially diluted peptides also dissolved in MHB. The final peptide concentration was 128 μg/mL. Cultures were then incubated at 37° C., 5% CO2 for 16-20 h without shaking, and growth inhibition was measured by recording the absorbance at 600 nm using a microplate reader. […] The minimal inhibitory concentration indicates the lowest peptide dose where no visible bacterial growth is detected after 16 hours incubation in full strength Muller-Hinton broth at 37° C. The peptide Chex-pyrr-Dap dimer was also included in the study. […] (Cudic et al., 2002. Peptides 23: 271-283).
# (§2) Following the protocol of Example 2, minimal inhibitory concentrations of the Chex1-Arg20 peptide against selected bacteria was determined. […] A3-APO was included for comparison.
# [2] = tested on: E. coli HK131
# Excerpt: as §1, §2
# [3] = tested on: S. typhimurium G10215
# Excerpt: as §1, §2
# [4] = tested on: E. coli 045-849
# Excerpt: as §1, §2
# [5] = tested on: E. coli SOTE40
# Excerpt: as §1, §2
# [6] = tested on: S. typhimurium ATCC 14028
# Excerpt: as §1, §2
# [7] = tested on: K. pneumoniae HK 123
# Excerpt: as §1, §2
# [8] = tested on: K. pneumoniae HK 186
# Excerpt: as §1, §2
# [9] = tested on: S. typhimurium S5
# Excerpt: as §1, §2
# [10] = tested on: S. saprophyticus ATCC 15305
# Excerpt: as §1, §2
# [11] = tested on: K. pneumoniae K6
# Excerpt: as §1, §2
# [12] = tested on: E. coli 5770
# Excerpt: as §1, §2
# [13] = tested on: E. coli HK179
# Excerpt: as §1, §2
# [14] = tested on: P. aeruginosa ATCC 39329
# Excerpt: as §1, §2
# [15] = tested on: A. baumannii ATCC BBA-1605
# Excerpt: as §1, §2
# [16] = tested on: E. coli SEQ102
# Excerpt: as §1, §2
# [17] = tested on: K. pneumoniae HK 127
# Excerpt: as §1, §2
# [18] = tested on: P. aeruginosa 10
# Excerpt: as §1, §2
# [19] = tested on: S. typhimurium G10215; details: G10215, 16 h
# Excerpt: as §1
# [20] = tested on: E. coli D31; details: full strength Muller-Hinton broth, 16 hours, 37° C.
# Excerpt: as §1
# [21] = tested on: K. pneumoniae HK123; details: HK123, 16 h
# Excerpt: as §1
# [22] = tested on: E. coli HK179; details: HK179, 16 h
# Excerpt: as §1
# [23] = tested on: Enterobacteriaceae strains
# Excerpt: as §1
# [24] = tested on: E. coli SEQ102; details: SEQ102, 16 h
# Excerpt: as §1
# [25] = tested on: Klebsiella pneumoniae isolates
# Excerpt: as §1
smiles,measurement,setting,value
"CC(C)C[C@H](NC(=O)[C@H](Cc1ccc(O)cc1)NC(=O)[C@@H]1CCCN1C(=O)[C@H](CCCNC(=N)N)NC(=O)[C@@H]1CCCN1C(=O)[C@H](CCCCN)NC(=O)[C@H](CC(=O)O)NC(=O)[C@@H]1CCCN1C(=O)[C@H](CCCNC(=N)N)NC(=O)C1(N)CCCCC1)C(=O)N1CCC[C@H]1C(=O)N[C@@H](CCCNC(=N)N)C(=O)N1CCC[C@H]1C(=O)N[C@@H](CCCNC(=N)N)C(=O)N1CCC[C@H]1C(=O)N1CCC[C@H]1C(=O)N[C@@H](CCCNC(=N)N)C(=O)N1CCC[C@H]1C(=O)N[C@H](C(=O)N[C@@H](CCCNC(=N)N)C(=O)O)C(C)C [Chex1-Arg20, Chex-Arg-Pro-Asp-Lys-Pro-Arg-Pro-Tyr-Leu-Pro-Arg-Pro-Arg--Pro-Pro-Arg-Pro-Val-Arg] (H-[Ac6c]RPDKPRPYLPRPRPPRPVR-OH; N-terminus and C-terminus assumed)","MIC, K. pneumoniae 012-3132",[1],0.25 µg/mL
same,"MIC, E. coli HK131",[2],1 µg/mL
same,"MIC, S. typhimurium G10215",[3],0.25 µg/mL
same,"MIC, E. coli 045-849",[4],2 µg/mL
same,"MIC, E. coli SOTE40",[5],2 µg/mL
same,"MIC, S. typhimurium ATCC 14028",[6],1 µg/mL
same,"MIC, K. pneumoniae HK 123",[7],2 µg/mL
same,"MIC, K. pneumoniae HK 186",[8],0.25 µg/mL
same,"MIC, S. typhimurium S5",[9],0.5 µg/mL
same,"MIC, S. saprophyticus ATCC 15305",[10],4 µg/mL
same,"MIC, K. pneumoniae K6",[11],2 µg/mL
same,"MIC, E. coli 5770",[12],0.5 µg/mL
same,"MIC, E. coli HK179",[13],1 µg/mL
same,"MIC, P. aeruginosa ATCC 39329",[14],32 µg/mL
same,"MIC, A. baumannii ATCC BBA-1605",[15],16 µg/mL
same,"MIC, E. coli SEQ102",[16],1 µg/mL
same,"MIC, K. pneumoniae HK 127",[17],0.25 µg/mL
same,"MIC, P. aeruginosa 10",[18],32 µg/mL
same,MIC against S. typhimurium G10215,[19],4 µg/mL
same,MIC against E. coli D31,[20],8 µg/mL
same,MIC against K. pneumoniae HK123,[21],8 µg/mL
same,MIC against E. coli HK179,[22],2 µg/mL
same,IC50,[23],100 to 500 nM
same,activity relative to A3-APO in milligram/L terms,[23]; on average,twice as active
same,activity relative to A3-APO in molar terms,[23]; on average,5 times
same,potency in killing resistant bacteria relative to A3-APO,"[23]; overall, Table 3",twice as potent
same,MIC against E. coli SEQ102,[24],32 µg/mL
same,minimal bactericidal concentrations (MBC),[25],8 µg/mL
